# Results published in patent publication US6355799B1, “Substituted benzene compounds, process for their preparation, and herbicidal and defoliant compositions containing them” (ISK Americas Incorporated, priority 1997, dated 2002).
# Legend:
# Assay type in all cases: in vivo
# [1] = tested on: field corn (Zea mays L., var. Dekalb 535, CORN); test: Post-emerge test, crop safety; conditions: post-emerge, 14 days after application, rating scale 0-100
# Procedure, shortened: (§1)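 Sandy loam pots; pre-emerge: sown 1 d pre-spray, surface-watered after, then bottom-watered. Post-emerge: sown 8–21 d before, 2–3 leaf stage, + 0.25% v/v NIS, bottom-watered. Acetone, 187 l/ha track spray, 15–1000 g ai/ha. 0–100 injury score, day 14.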
# [2] = tested on: upland rice (Oryza sp., var. Tebonnet, RICE); test: Post-emerge test, crop safety; conditions: post-emerge, 14 days after application, rating scale 0-100
# Procedure, shortened: as §1
# [3] = tested on: ivyleaf morningglory (Ipomoea hederacea, IPOHE); test: Pre-emerge test, greenhouse herbicide activity screening; conditions: phytotoxicity rating 0-100, 14 days after application
# Procedure, shortened: as §1
# [4] = tested on: sicklepod (Cassia obtusifolia, CASOB); test: as above; conditions: phytotoxicity rating 0-100, 14 days after application
# Procedure, shortened: as §1
# [5] = tested on: large crabgrass (Digitaria sanguinalis, DIGSA); test: as above; conditions: phytotoxicity rating 0-100, 14 days after application
# Procedure, shortened: as §1
# [6] = tested on: velvetleaf (Abutilon theophrasti, ABUTH); test: as above; conditions: phytotoxicity rating 0-100, 14 days after application
# Procedure, shortened: as §1
# [7] = tested on: green foxtail (Setaria viridis, SETVI); test: as above; conditions: phytotoxicity rating 0-100, 14 days after application
# Procedure, shortened: as §1
# [8] = tested on: lambsquarters (Chenopodium album, CHEAL); test: as above; conditions: phytotoxicity rating 0-100, 14 days after application
# Procedure, shortened: as §1
# [9] = tested on: barnyardgrass (Echinochloa crus-galli, ECHCG); test: as above; conditions: phytotoxicity rating 0-100, 14 days after application
# Procedure, shortened: as §1
# [10] = tested on: field corn (Zea mays L., var. Dekalb 535, CORN); test: Pre-emerge test, crop safety; conditions: crop damage rating 0-100, 14 days after application
# Procedure, shortened: (§2)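 Rating: 0–100 visual injury, 14 DAA. Application: acetone, 187 l/ha, 15–1000 g ai/ha, flat-fan track sprayer with nozzle 40–45 cm above soil or canopy. Post-emerge runs used 0.25% v/v surfactant on 2–3 leaf plants.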
# [11] = tested on: upland rice (Oryza sp., var. Tebonnet, RICE); test: Pre-emerge test, crop safety; conditions: crop damage rating 0-100, 14 days after application
# Procedure, shortened: as §2
# [12] = tested on: redroot pigweed (Amaranthus retroflexus, AMARE); test: Pre-emerge test, greenhouse herbicide activity screening; conditions: phytotoxicity rating 0-100, 14 days after application
# Procedure, shortened: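 Herbicidal damage is scored 0 (none) to 100 (complete plant death) two weeks after a simulated field spray. Rates span 15–1000 g ai/ha, delivered in acetone at 187 l/ha. For post-emergence treatments, plants have 2–3 leaves and the spray carries 0.25% v/v non-ionic surfactant.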
# [13] = tested on: ivyleaf morningglory (Ipomoea hederacea, IPOHE); test: Post-emerge test, greenhouse herbicide activity screening; conditions: post-emerge, 14 days after application, rating scale 0-100
# Procedure, shortened: as §2
# [14] = tested on: sicklepod (Cassia obtusifolia, CASOB); test: as above; conditions: post-emerge, 14 days after application, rating scale 0-100
# Procedure, shortened: as §2
# [15] = tested on: large crabgrass (Digitaria sanguinalis, DIGSA); test: as above; conditions: post-emerge, 14 days after application, rating scale 0-100
# Procedure, shortened: as §2
# [16] = tested on: velvetleaf (Abutilon theophrasti, ABUTH); test: as above; conditions: post-emerge, 14 days after application, rating scale 0-100
# Procedure, shortened: as §2
# [17] = tested on: redroot pigweed (Amaranthus retroflexus, AMARE); test: as above; conditions: post-emerge, 14 days after application
# Procedure, shortened: as §2
# [18] = tested on: green foxtail (Setaria viridis, SETVI); test: as above; conditions: post-emerge, 14 days after application, rating scale 0-100
# Procedure, shortened: as §2
# [19] = tested on: lambsquarters (Chenopodium album, CHEAL); test: as above; conditions: post-emerge, 14 days after application, rating scale 0-100
# Procedure, shortened: as §2
# [20] = tested on: johnsongrass (Sorghum halepense, SORHA); test: as above; conditions: post-emerge, 14 days after application, rating scale 0-100
# Procedure, shortened: as §2
# [21] = tested on: barnyardgrass (Echinochloa crus-galli, ECHCG); test: as above; conditions: post-emerge, 14 days after application, rating scale 0-100
# Procedure, shortened: as §2
# [22] = 63 g ai/ha, rating scale 0-100 (0 no damage, 100 complete death)
# [23] = 250 g ai/ha, rating scale 0-100
smiles,measurement,setting,value
COc1c(Cl)cc(F)c(-n2c(=O)cc(C(F)(F)F)n(C)c2=O)c1NC(=O)OCc1ccccn1 [4-36],phytotoxicity rating CORN (crop damage),[1]; 63 g ai/ha,50
same,phytotoxicity rating CORN (crop damage),[1]; 250 g ai/ha,100
same,phytotoxicity rating RICE (crop damage),[2]; 63 g ai/ha,60
same,phytotoxicity rating RICE (crop damage),[2]; 250 g ai/ha,100
same,Pre-emerge Herbicidal Activity IPOHE,[3]; 63 g ai/ha,100
same,Pre-emerge Herbicidal Activity IPOHE,[3]; 250 g ai/ha,100
same,Pre-emerge Herbicidal Activity CASOB,[4]; 63 g ai/ha,80
same,Pre-emerge Herbicidal Activity CASOB,[4]; 250 g ai/ha,100
same,Pre-emerge Herbicidal Activity DIGSA,[5]; 63 g ai/ha,30
same,Pre-emerge Herbicidal Activity DIGSA,[5]; 250 g ai/ha,100
same,Pre-emerge Herbicidal Activity ABUTH,[6]; 63 g ai/ha,100
same,Pre-emerge Herbicidal Activity ABUTH,[6]; 250 g ai/ha,100
same,Pre-emerge Herbicidal Activity SETVI,[7]; 63 g ai/ha,60
same,Pre-emerge Herbicidal Activity SETVI,[7]; 250 g ai/ha,100
same,Pre-emerge Herbicidal Activity CHEAL,[8]; 63 g ai/ha,100
same,Pre-emerge Herbicidal Activity CHEAL,[8]; 250 g ai/ha,100
same,Pre-emerge Herbicidal Activity ECHCG,[9]; 63 g ai/ha,30
same,Pre-emerge Herbicidal Activity ECHCG,[9]; 250 g ai/ha,90
same,Pre-emerge Herbicidal Activity CORN,[10]; 63 g ai/ha,90
same,Pre-emerge Herbicidal Activity CORN,[10]; 250 g ai/ha,100
same,Pre-emerge Herbicidal Activity RICE,[11]; 63 g ai/ha,60
same,Pre-emerge Herbicidal Activity RICE,[11]; 250 g ai/ha,95
same,Pre-emerge Herbicidal Activity AMARE,[12]; 63 g ai/ha,90
same,Pre-emerge Herbicidal Activity AMARE,[12]; 250 g ai/ha,100
same,phytotoxicity rating IPOHE,[13]; 63 g ai/ha,100
same,phytotoxicity rating IPOHE,[13]; 250 g ai/ha,100
same,phytotoxicity rating CASOB,[14]; 63 g ai/ha,100
same,phytotoxicity rating CASOB,[14]; 250 g ai/ha,100
same,phytotoxicity rating DIGSA,[15]; 63 g ai/ha,30
same,phytotoxicity rating DIGSA,[15]; 250 g ai/ha,70
same,phytotoxicity rating ABUTH,[16]; 63 g ai/ha,100
same,phytotoxicity rating ABUTH,[16]; 250 g ai/ha,100
same,phytotoxicity rating AMARE,[17]; [22],100
same,phytotoxicity rating AMARE,[17]; [23],100
same,phytotoxicity rating SETVI,[18]; 63 g ai/ha,90
same,phytotoxicity rating SETVI,[18]; 250 g ai/ha,90
same,phytotoxicity rating CHEAL,[19]; 63 g ai/ha,100
same,phytotoxicity rating CHEAL,[19]; 250 g ai/ha,100
same,phytotoxicity rating SORHA,[20]; 63 g ai/ha,10
same,phytotoxicity rating SORHA,[20]; 250 g ai/ha,90
same,phytotoxicity rating ECHCG,[21]; 63 g ai/ha,20
same,phytotoxicity rating ECHCG,[21]; 250 g ai/ha,60
COc1c(Cl)cc(F)c(-n2c(=O)cc(C(F)(F)F)n(C)c2=O)c1NC(=O)OCc1cc(C)cc(C)c1 [4-37],phytotoxicity rating CORN (crop damage),[1]; 63 g ai/ha,20
same,phytotoxicity rating CORN (crop damage),[1]; 250 g ai/ha,60
same,phytotoxicity rating RICE (crop damage),[2]; 63 g ai/ha,10
same,phytotoxicity rating RICE (crop damage),[2]; 250 g ai/ha,60
same,Pre-emerge Herbicidal Activity IPOHE,[3]; 63 g ai/ha,30
same,Pre-emerge Herbicidal Activity IPOHE,[3]; 250 g ai/ha,50
same,Pre-emerge Herbicidal Activity CASOB,[4]; 63 g ai/ha,30
same,Pre-emerge Herbicidal Activity CASOB,[4]; 250 g ai/ha,40
same,Pre-emerge Herbicidal Activity DIGSA,[5]; 63 g ai/ha,60
same,Pre-emerge Herbicidal Activity DIGSA,[5]; 250 g ai/ha,90
same,Pre-emerge Herbicidal Activity ABUTH,[6]; 63 g ai/ha,100
same,Pre-emerge Herbicidal Activity ABUTH,[6]; 250 g ai/ha,90
same,Pre-emerge Herbicidal Activity SETVI,[7]; 63 g ai/ha,90
same,Pre-emerge Herbicidal Activity SETVI,[7]; 250 g ai/ha,100
same,Pre-emerge Herbicidal Activity CHEAL,[8]; 63 g ai/ha,100
same,Pre-emerge Herbicidal Activity CHEAL,[8]; 250 g ai/ha,100
same,Pre-emerge Herbicidal Activity ECHCG,[9]; 63 g ai/ha,10
same,Pre-emerge Herbicidal Activity ECHCG,[9]; 250 g ai/ha,60
same,Pre-emerge Herbicidal Activity CORN,[10]; 63 g ai/ha,0
same,Pre-emerge Herbicidal Activity CORN,[10]; 250 g ai/ha,0
same,Pre-emerge Herbicidal Activity RICE,[11]; 63 g ai/ha,10
same,Pre-emerge Herbicidal Activity RICE,[11]; 250 g ai/ha,30
same,Pre-emerge Herbicidal Activity AMARE,[12]; 63 g ai/ha,100
same,Pre-emerge Herbicidal Activity AMARE,[12]; 250 g ai/ha,100
same,phytotoxicity rating IPOHE,[13]; 63 g ai/ha,100
same,phytotoxicity rating IPOHE,[13]; 250 g ai/ha,100
same,phytotoxicity rating CASOB,[14]; 63 g ai/ha,90
same,phytotoxicity rating CASOB,[14]; 250 g ai/ha,100
same,phytotoxicity rating DIGSA,[15]; 63 g ai/ha,50
same,phytotoxicity rating DIGSA,[15]; 250 g ai/ha,70
same,phytotoxicity rating ABUTH,[16]; 63 g ai/ha,100
same,phytotoxicity rating ABUTH,[16]; 250 g ai/ha,100
same,phytotoxicity rating AMARE,[17]; [22],100
same,phytotoxicity rating AMARE,[17]; [23],100
same,phytotoxicity rating SETVI,[18]; 63 g ai/ha,90
same,phytotoxicity rating SETVI,[18]; 250 g ai/ha,90
same,phytotoxicity rating CHEAL,[19]; 63 g ai/ha,100
same,phytotoxicity rating CHEAL,[19]; 250 g ai/ha,100
same,phytotoxicity rating SORHA,[20]; 63 g ai/ha,40
same,phytotoxicity rating SORHA,[20]; 250 g ai/ha,60
same,phytotoxicity rating ECHCG,[21]; 63 g ai/ha,20
same,phytotoxicity rating ECHCG,[21]; 250 g ai/ha,60
